Experimental data taken from patent US6699846B2, “Mono- and disaccharides for the treatment of nitric oxide related disorders” (Corixa Corporation, priority 2000, dated 2004).
Read-outs that look alike come from different tables or passages of the source.

How the values were obtained:
[1] = USP rabbit pyrogen test; format: in vivo; details: for pyrogenicity: 2.5 μg dose, class symbols
From the text: (§1) In clinical trials with monophosphoryl lipid A, fever was generally the first observed side effect. In clinical studies of various formulations of monophosphoryl lipid A administered intravenously, moderate fever, flu-like symptoms and alterations in blood pressure seem to be side effects that establish maximally tolerated doses. Minimum pyrogenic monophosphoryl lipid A doses, adjusted for body weight, as determined in the USP rabbit pyrogen test agree well with results observed in humans. […] In contrast, monophosphoryl lipid A becomes pyrogenic at intravenous doses of approximately 15 μg/kg (temperature increase of about 0.5° C.).

[2] = system: human myelomonocytic cell line THP-1; experiment: proinflammatory cytokine elaboration from THP-1 cells; format: cell-based; details: for cytokine induction / cytokine stimulation: TNF-α, IL-1β, class symbols; for cytokine stimulation: second table
Experimental: The human myelomonocytic cell line THP-1 (ATCC) was used to evaluate the ability of glycolipids to induce proinflammatory cytokines. Glycolipids were added to cell suspensions of THP-1 as aqueous solutions containing 10% ethanol in water for injection. Prior to the 4 hr inductions, THP-1 cells are pre-incubated overnight with 10^−7 M vitamin D3, washed three times and replated in the presence of MPL®, LPS or the synthetic compounds. After 4 hr coincubating of cells with glycolipids, media containing drug is removed, cells resuspended in fresh media and allowed to rest for 20 hr.

[3] = system: iNOS induction in J774 murine macrophages; experiment: iNOS induction (nitrite release, Greiss reagent) in IFN-γ primed J774 cells; format: cell-based; details: for iNOS: second table, class symbols
Experimental: The murine macrophage cell line J774 can be primed by IFN-γ in vitro and is very responsive to subsequent LPS stimulation of iNOS upregulation as measured by a standard Greiss reagent ELISA assay procedure. The assay utilizes J774 cells seeded at 1×10^6/mL with 30 mL/flask and with IFN-γ added at 100 units/mL for 16-24 hrs. Cells are then harvested and washed and resuspended at 2×10^5/well in a 96-well plate and allowed to adhere. Glycolipid compounds are serially diluted into the wells for a test group and the resulting cultures are incubated for another 36-40 hrs before culture supernatants are collected from Greiss reagent analysis of nitrite release. Nitrite content closely parallels iNOS function.
Potency was determined as the concentration (ng/mL) of glycolipid in culture capable of inducing one-half maximal induction of nitrite (ED50). The lower the ED50 number, the greater the potency for iNOS induction.

[4] = system: pig infarct (LAD occlusion); experiment: pig infarct study (LAD occlusion), acute cardioprotection; format: in vivo
Experimental: A total of 35 pigs were enrolled in the study: 8 in group 1; 10 in group 2; 7 in group 3, 7 in group 4; and 3 in group 5. When the data were analyzed, infarct size results from the two L-NAME control groups (1 and 3) were combined.

[5] = body temperature in rats; format: in vivo, rat
[6] = system: cardiac ischemia; details: dogs
From the text: Free-radicals produced during reperfusion promote cell death. Free-radical damage to cells results in calcium overload and a decrease in activity of a variety of enzyme systems including, presumably, nitric oxide synthase causing a decrease in nitric oxide production leading to increases in neutrophil adhesion.

[7] = system: cardiac ischemia; details: rabbits, treated about 24 h before cardiac ischemia
[8] = body temperature in dogs; format: in vivo, dog
From the text: as §1

[9] = system: ischemic tissues; details: infusion immediately following bolus dosing
[10] = THP-1 cells, not elicited up to this concentration

SMILES	pyrogenicity [1]	cytokine induction [2]	pyrogenicity ([1]; second table)	iNOS [3]	cytokine stimulation [2]	further results
CCCCCCCCCCCC(CC(=O)NC1C(O)OC(COC2OC(CO)C(OP(=O)(O)O)C(OC(=O)CC(CCCCCCCCCCC)OC(C)=O)C2NC(=O)CC(CCCCCCCCCCC)OC(C)=O)C(O)C1O)OC(C)=O (centres unmarked) [Compound 5.18]	+ (+, from 1-2° C.)	− (−, not observable at 10 μg/mL)	–	–	–	–
CCCCCCCCCCCCCCCC(=O)OC(CCCCCCCCCCC)CC(=O)NC1C(O)OC(COC2OC(CO)C(OP(=O)(O)O)C(OC(=O)CC(CCCCCCCCCCC)OC(=O)CCCCCCCCCCCCC)C2NC(=O)CC(CCCCCCCCCCC)OC(=O)CCCCCCCCCCCCC)C(O)C1O (centres unmarked) [Compound 5.20]	− (−<1° C.)	++ (++, observable @ 1 μg/mL)	–	–	–	–
CCCCCCCCCCC[C@H](CC(=O)N[C@H]1[C@H](OC[C@H](NC(=O)C[C@@H](CCCCCCCCCCC)OC(=O)CCCCC)C(N)=O)O[C@H](CO)[C@@H](OP(=O)(O)O)[C@@H]1OC(=O)C[C@@H](CCCCCCCCCCC)OC(=O)CCCCC)OC(=O)CCCCC [Compound 5.21]	− (−<1° C.)	− (−, not observable at 10 μg/mL)	–	–	–	–
CCCCCCCCCCC[C@H](CC(=O)NCCO[C@@H]1O[C@H](CO)[C@@H](OP(=O)(O)O)[C@H](OC(=O)C[C@@H](CCCCCCCCCCC)OC(=O)CCCCC)[C@H]1NC(=O)C[C@@H](CCCCCCCCCCC)OC(=O)CCCCC)OC(=O)CCCCC [Compound 5.23]	− (−<1° C.)	− (−, not observable at 10 μg/mL)	–	–	–	–
CCCCCCCCCCCCCC(=O)O[C@H](CCCCCCCCCCC)CC(=O)NCCCO[C@@H]1O[C@H](CO)[C@@H](OP(=O)(O)O)[C@H](OC(=O)C[C@@H](CCCCCCCCCCC)OC(=O)CCCCCCCCCCCCC)[C@H]1NC(=O)C[C@@H](CCCCCCCCCCC)OC(=O)CCCCCCCCCCCCC [Compound 5.25]	− (−<1° C.)	++ (++, observable @ 1 μg/mL)	–	–	–	–
CCCCCCCCCCCC(CC(=O)N[C@H]1[C@H](OC[C@H](NC(=O)CC(CCCCCCCCCCC)OC(=O)CCCCC)C(=O)O)O[C@H](CO)[C@@H](OP(=O)(O)O)[C@@H]1OC(=O)CC(CCCCCCCCCCC)OC(=O)CCCCC)OC(=O)CCCCC (some centres unmarked) [Compound 5.26]	–	–	++ (++>2° C.)	− (−>200)	− (−, not observable at 10 μg/mL)	–
CCCCCCCCCCCCCC(=O)O[C@H](CCCCCCCCCCC)CC(=O)NCCO[C@@H]1O[C@H](CO)[C@@H](OP(=O)(O)O)[C@H](OC(=O)C[C@@H](CCCCCCCCCCC)OC(=O)CCCCCCCCCCCCC)[C@H]1NC(=O)C[C@@H](CCCCCCCCCCC)OC(=O)CCCCCCCCCCCCC [Compound 5.29]	− (−<1° C.)	++ (++, observable @ 1 μg/mL)	–	–	–	–
CCCCCCCCCCCC(CC(=O)NC1C(O)OC(COC2OC(CO)C(OP(=O)(O)O)C(OC(=O)CC(CCCCCCCCCCC)OC(=O)CCCCC)C2NC(=O)CC(CCCCCCCCCCC)OC(=O)CCCCC)C(O)C1O)OC(=O)CCCCC (centres unmarked) [Compound 5.31]	− (−<1° C.)	− (−, not observable at 10 μg/mL)	–	–	–	–
CCCCCCCCCCCC(CC(=O)NC1C(O)OC(COC2OC(CO)C(OP(=O)(O)O)C(OC(=O)CC(CCCCCCCCCCC)OC(=O)CCC)C2NC(=O)CC(CCCCCCCCCCC)OC(=O)CCC)C(O)C1O)OC(=O)CCC (centres unmarked) [Compound 5.32]	++ (++>2° C.)	− (−, not observable at 10 μg/mL)	–	–	–	–
CCCCCCCCCCCC(CC(=O)N[C@H]1[C@H](OC[C@H](NC(=O)CC(CCCCCCCCCCC)OC(=O)CCCCCC)C(=O)O)O[C@H](CO)[C@@H](OP(=O)(O)O)[C@@H]1OC(=O)CC(CCCCCCCCCCC)OC(=O)CCCCCC)OC(=O)CCCCCC (some centres unmarked) [Compound 5.54]	–	–	++ (++>2° C.)	− (−>200)	− (−, not observable at 10 μg/mL)	–
CCCCCCCCCCCC(CC(=O)N[C@H]1[C@H](OC[C@H](NC(=O)CC(CCCCCCCCCCC)OC(=O)CCCCCCCCC)C(=O)O)O[C@H](CO)[C@@H](OP(=O)(O)O)[C@@H]1OC(=O)CC(CCCCCCCCCCC)OC(=O)CCCCC)OC(=O)CCCCCCCCC (some centres unmarked) [Compound 5.66]	–	–	++ (++>2° C.)	++ (++<80)	− (−, not observable at 10 μg/mL)	–
CCCCCCCCCCCC(CC(=O)N[C@H]1[C@H](OC[C@H](NC(=O)CC(CCCCCCCCCCC)OC(=O)CCCCCCCCC)C(=O)O)O[C@H](CO)[C@@H](OP(=O)(O)O)[C@@H]1OC(=O)CC(CCCCCCCCCCC)OC(=O)CCCCC)OC(=O)CCCCC (some centres unmarked) [Compound 5.67]	–	–	++ (++>2° C.)	− (−>200)	− (−, not observable at 10 μg/mL)	–
CCCCCCCCCCCC(CC(=O)N[C@H]1[C@H](OC[C@H](NC(=O)CC(CCCCCCCCCCC)OC(=O)CCCCC)C(=O)O)O[C@H](CO)[C@@H](OP(=O)(O)O)[C@@H]1OC(=O)CC(CCCCCCCCCCC)OC(=O)CCCCC)OC(=O)CCCCCCCCC (some centres unmarked) [Compound 5.68]	–	–	++ (++>2° C.)	− (−>200)	− (−, not observable at 10 μg/mL)	–
COC(=O)[C@@H](N)CCCNC(=N)N[N+](=O)[O-] [L-NAME, Nω-nitro-L-arginine methyl ester, reference compound]	–	–	–	–	–	mean infarct size, L-NAME controls ([4]; pigs, combined group of L-NAME alone and L-NAME+vehicle, 0.5 mg/kg): 36.9±3.7%
CCCCCCCCCCCCCCCCCC(=O)OC(CCCCCCCCCCC)CC(=O)NC1C(OCC2OC(O)C(NC(=O)CC(CCCCCCCCCCC)OC(=O)CCCCCCCCCCCCCCC)C(O)C2O)OC(CO)C(OP(=O)(O)O)C1OC(=O)CC(CCCCCCCCCCC)OC(=O)CCCCCCCCCCCCC (centres unmarked) [RC-552]	− (−<1° C.)	− (−, not observable at 10 μg/mL)	–	–	–	mean infarct size ([4]; pigs, 29 μg/kg i.v. bolus 10 minutes prior to ischemia (LAD occlusion), vehicle 28.9±5.0%): 14.2±3.0%; mean infarct size, L-NAME before RC-552 ([4]; pigs, 0.5 mg/kg L-NAME 30 minutes prior to 29 μg/kg RC-552): 40.2±4.4%; reduction of infarct size vs vehicle pretreated pigs ([4]; treated 10 minutes prior to ischemia): 50%; intravenous dose without detectable increase in temperature [5]: > 3 mg/kg; delayed cardioprotective effect after NOS inhibitor (aminoguanidine or L-NAME) [6]: blocked; delayed protection ([6]; treated about 24 h before cardiac ischemia): reduced infarct size and stunning; average temperature increase ([1]; rabbits, i.v. doses up to at least 1,000 μg/kg, 10% ethanol in USP WFI): less than 0.35 °C; delayed protection [7]: reduced infarct size and stunning; intravenous dose without detectable increase in temperature [8]: > 3 mg/kg; maximal iNOS activity / nitrite elaboration ([3]; J774, IFN-γ primed): very low maximal iNOS activity; concentration inducing IL-1B secretion ([2]; THP-1 cells, 4 hr induction): > 10,000 ng/mL; concentration inducing IL-8 elaboration ([2]; THP-1 cells, 4 hr induction): > 10,000 ng/mL; concentration eliciting IL-1 [2, 10]: > 10,000 μg/mL; concentration eliciting IL-8 [2, 10]: > 10,000 μg/mL; concentration inducing TNF secretion ([2]; THP-1 cells, not induced up to this concentration): > 10,000 μg/mL; duration of extended acute protective effect [9]: at least 3 h
